How the values were obtained:
Set-up in all cases: species or system Placenta
Aromatase [1] = target: T1, Aromatase (Homo sapiens, UniProt P11511); test: Inhibition of aromatase activity in human placental microsomes
T1 sequence (P11511 whole entry): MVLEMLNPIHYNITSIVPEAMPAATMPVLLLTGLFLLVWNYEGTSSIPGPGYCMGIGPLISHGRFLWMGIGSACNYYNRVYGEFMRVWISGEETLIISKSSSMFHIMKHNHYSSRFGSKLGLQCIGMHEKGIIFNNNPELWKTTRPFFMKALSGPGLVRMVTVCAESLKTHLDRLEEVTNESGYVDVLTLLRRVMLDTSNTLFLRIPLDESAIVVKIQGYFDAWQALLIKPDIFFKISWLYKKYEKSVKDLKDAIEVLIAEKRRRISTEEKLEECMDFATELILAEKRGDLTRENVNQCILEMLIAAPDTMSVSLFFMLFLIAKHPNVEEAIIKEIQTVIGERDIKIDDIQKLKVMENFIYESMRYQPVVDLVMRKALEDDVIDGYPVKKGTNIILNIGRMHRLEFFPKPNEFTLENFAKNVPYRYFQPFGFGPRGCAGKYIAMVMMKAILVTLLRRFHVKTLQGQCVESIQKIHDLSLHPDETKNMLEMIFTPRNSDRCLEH

Aromatase [2] = target: T1, Aromatase; test: Relative potency for aromatase inhibition in human placental microsomes compared to aminoglutethimide
Aromatase [3] = target: T1, Aromatase; test: Relative potency for aromatase inhibition in human placental microsomes compared to flavanone

IC50 (Aromatase [1]): 41 nM | Relative potency (Aromatase [2]): 127 | Relative potency (Aromatase [3]): 93
SMILES: Oc1ccc2c(c1)OC(c1ccccc1)CC2n1ccnc1 (stereo not drawn)

— ChEMBL document CHEMBL1135202, “Design, synthesis and evaluation of 4-imidazolylflavans as new leads for aromatase inhibition” (Bioorg Med Chem Lett, 2002)
